Laboratory results: BindingDB's records for doi:10.1016/j.bmcl.2006.01.055 (Bristol-Myers Squibb Pharmaceutical Research Institute, 2006)

Assay: Inhibition of beta-amyloid peptide production in CHO N9 cell line
In the case of `CCC[C@H](C(N)=O)[C@@H](CC(C)C)C(=O)N[C@H]1CCCCN(Cc2cccc(Nc3ccc(OC)cc3)c2)C1=O`, the IC50 is reported as 160 nM. Work on `CCC[C@H](C(=O)NC/C=C/Cc1ccccc1)[C@@H](CC(C)C)C(=O)N[C@H]1CCCCN(Cc2cccc(Oc3ccccc3)c2)C1=O` yielded an IC50 of 3000 nM. `CCC[C@H](C(=O)NO)[C@@H](CC(C)C)C(=O)N[C@H]1CCCCN(Cc2cccc(Oc3ccccc3)c2)C1=O` [(2S,3R)-N1-hydroxy-3-isobutyl-N4-((S)-2-oxo-1-(3-phenoxybenzyl)azepan-3-yl)-2-propylsuccinamide] gave an IC50 of 200 nM. `CCC[C@H](C(N)=O)[C@@H](CC(C)C)C(=O)N[C@H]1CCCCN(Cc2cccc(Nc3ccccc3Cl)c2)C1=O` showed an IC50 of 29 nM. `CCC[C@H](C(N)=O)[C@@H](CC(C)C)C(=O)N[C@H]1CCCCN(Cc2cccc(Nc3ccc(C(F)(F)F)cc3)c2)C1=O` gave an IC50 of 30 nM. Compound `CCC[C@H](C(N)=O)[C@@H](CC(C)C)C(=O)N[C@H]1CCCCN(Cc2cccc(Nc3ccccc3)c2)C1=O` [(2R,3S)-N1-((S)-1-(3-(phenylamino)benzyl)-2-oxoazepan-3-yl)-2-isobutyl-3-propylsuccinamide] has an IC50 of 15 nM. In the case of `CCC[C@H](C(N)=O)[C@@H](CC(C)C)C(=O)N[C@H]1CCCCN(Cc2cccc(Nc3ccc4c(c3)OCO4)c2)C1=O`, the IC50 is reported as 152 nM. `CCCCNC(=O)[C@@H](CCC)[C@@H](CC(C)C)C(=O)N[C@H]1CCCCN(Cc2cccc(Oc3ccccc3)c2)C1=O` showed an IC50 of 5000 nM. In the case of `CCC[C@H](C(=O)NO)[C@@H](CC(C)C)C(=O)N[C@H]1CCCCN(Cc2ccccc2)C1=O`, the IC50 is reported as 6800 nM. For `CCC[C@H](C(N)=O)[C@@H](CC(C)C)C(=O)N[C@H]1CCCCN(Cc2cccc(Nc3cccc(C)c3)c2)C1=O`, the IC50 was 17 nM. In the case of `CCC[C@H](C(=O)NC1CCCC1)[C@@H](CC(C)C)C(=O)N[C@H]1CCCCN(Cc2cccc(Oc3ccccc3)c2)C1=O`, the IC50 is reported as 6000 nM. `CCC[C@H](C(N)=O)[C@@H](CC(C)C)C(=O)N[C@H]1CCCCN(Cc2cccc(Nc3cccc(OC)c3)c2)C1=O` showed an IC50 of 54 nM. Work on `CCC[C@H](C(=O)NCc1ccco1)[C@@H](CC(C)C)C(=O)N[C@H]1CCCCN(Cc2cccc(Oc3ccccc3)c2)C1=O` yielded an IC50 of 3000 nM. `CCC[C@H](C(N)=O)[C@@H](CC(C)C)C(=O)N[C@H]1CCCCN(Cc2cccc(Nc3ccc(F)c(Cl)c3)c2)C1=O` gave an IC50 of 17 nM.
